Common to all, as to assay type: biochemical
Experiment [1] deals with T1, ArgD7002 (N-acetylornithine aminotransferase) (Picosynechococcus sp. PCC 7002, UniProt B1XNF8).
T1 construct: gene argD; full ORF, N-terminal His10 tag kept, E. coli DH5alpha, Ni-NTA purified
T1 sequence (B1XNF8 1-418): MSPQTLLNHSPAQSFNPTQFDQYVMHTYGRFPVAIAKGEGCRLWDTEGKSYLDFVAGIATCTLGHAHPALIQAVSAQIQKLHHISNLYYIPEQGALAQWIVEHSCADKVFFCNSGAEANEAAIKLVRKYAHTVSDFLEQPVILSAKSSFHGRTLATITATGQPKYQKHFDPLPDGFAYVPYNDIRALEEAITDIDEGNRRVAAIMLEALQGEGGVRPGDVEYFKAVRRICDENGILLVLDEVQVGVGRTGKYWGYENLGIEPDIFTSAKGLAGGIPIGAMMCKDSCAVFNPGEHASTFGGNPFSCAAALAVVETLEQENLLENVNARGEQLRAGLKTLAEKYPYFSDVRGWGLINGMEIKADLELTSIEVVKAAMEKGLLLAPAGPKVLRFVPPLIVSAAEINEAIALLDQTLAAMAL
The experiment is described as follows: HPLC of PITC derivatives, glutamate formation. As to conditions: 1 mM GABA, 1 mM 2-oxoglutarate, 50 mM K-phosphate, pH 9, room temperature, 1 h.

Experiment [2] addresses T2, ArgD6803 (N-acetylornithine aminotransferase) (Synechocystis sp. PCC 6803, UniProt P73133).
T2 construct: gene argD; full ORF, N-terminal His10 tag kept, E. coli DH5alpha, Ni-NTA purified
The experiment is described as follows: HPLC of PITC derivatives, glutamate formation. The settings on record: 1 mM 2-oxoglutarate, 50 mM K-phosphate, pH 9, room temperature, 1 h.

In experiment [3] the target is T3, GadA6803 (glutamate decarboxylase) (Synechocystis sp. PCC 6803, UniProt P73043).
T3 construct: gene gad; full ORF, N-terminal His10 tag kept, E. coli DH5alpha, Ni-NTA purified
The experiment is described as follows: HPLC of PITC derivatives, GABA formation. The settings on record: 1 mM glutamate, 50 mM K-phosphate, pH 4.5, room temperature, 1 h.

Experimental findings from paper PMC5160925 (Frontiers in Microbiology, 2016) are described below.

As to `NCCCC(=O)O` [GABA], the “HPLC of PITC derivatives, glutamate formation” value in experiment [1] is “argD6803 or argD7002 was incubated with GABA and 2-oxoglutarate, glutamate was produced”; in experiment [2] (1 mM GABA), “argD6803 or argD7002 was incubated with GABA and 2-oxoglutarate, glutamate was produced”.

Regarding `NCCC[C@H](N)C(=O)O` [L-ornithine], in experiment [2] (1 mM L-ornithine), the “HPLC of PITC derivatives, glutamate formation” value was “argD6803 or argD7002 was incubated with L-ornithine and 2-OG, glutamate was produced”.

With `N[C@@H](CCC(=O)O)C(=O)O` [glutamate], the “HPLC of PITC derivatives, GABA formation” value in experiment [3] is “this protein catalyzes the conversion of glutamate to GABA”.
